From PMC11983176 (ACS Omega, 2025) come the findings set out here.

Where two headings read alike, the source gives them in different places.

Data set [1] has as its system MCF-7. Briefly: MTT cytotoxicity assay, MCF-7. The format is cell-based, human. The conditions noted are these: read-out: Cytotoxicity (IC50) MCF-7, 48 h of treatment. For orientation: Formazan colour is commonly taken as a measure of viable cells.
The test system of data set [2] is T47D. Briefly: MTT cytotoxicity assay, T47D. The format is cell-based, human.
In data set [3] the test system is MCF-7. Put plainly: Cell viability by cell adhesion assay. The format is cell-based, human. The conditions noted are these: MCF-7, 500 to 1.95 μM, 45 min.
Data set [4] can be described thus: Stability in PBS and Tris-HCl buffer by UV-vis spectroscopy. The format is physicochemical. The conditions noted are these: PBS (0.1 M, pH 7.4) and Tris-HCl, 10% DMSO, room temperature, 5 min to 72 h.

Usually IC50 stands for the point on the concentration scale where inhibition reaches its midpoint. For “1-Cyclopentyl-2,3-dihydro-1H-benzimidazole [compound 1]”, the IC50 in data set [1] was found to be 37 ± 1.93 µM; in data set [2] (read-out: Cytotoxicity (IC50) T47D, MTT assay, 48 h of treatment), 41 ± 2.12 µM.
As to `CC/C(=C(\c1ccccc1)c1ccc(OCCN(C)C)cc1)c1ccccc1` [Tamoxifen], in data set [2] (Homo sapiens, T47D, 48 h, read-out: Cytotoxicity (IC50) T47D, MTT assay, 48 h of treatment), the IC50 came to 13 ± 0.71 µM. Moreover, the “cell killing in adhesion assay” value in data set [3] is “slightly less initial effects on MCF-7 cells”.
For `[Cl][Ag]` [silver chloride], the “stability in buffer solution” value in data set [4] is “precipitates appeared immediately”.
For `O=[N+]([O-])[O-].[Ag+]` [silver nitrate], the “stability in buffer solution” value in data set [4] is “precipitates appeared immediately”.
